Measured values: article PMC10394516, “The pharmacokinetic profile of brensocatib and its effect on pharmacodynamic biomarkers including NE, PR3, and CatG in various rodent species” (Frontiers in Pharmacology, 2023)

Tested on: PR3
Assay: PD recovery study, bone marrow PR3 activity, C57BL/6 mice
Assay type: in vivo
Conditions: for Percent change from vehicle PR3: bone marrow
Experimental: A PD recovery study was performed in female C57BL/6 mice dosed BID for 8 consecutive days. Mice were dosed by oral gavage either with vehicle (0 mg/kg) or 5 mg/kg brensocatib (BID; 10 mg/kg/day). After 8 consecutive days of dosing, the animals were maintained without further treatment until prescribed sacrifice (days: 1, 3, 6, 8, and 10 days post final dose). Plasma was collected from animals during the first 24 h of dosing at −0.5 (half-hour prior to dosing), 1, 8, 9, and 24 h post initial dose. Note that the 8- and 24-h plasma samples were prior to the afternoon dose and prior to the second day dose, respectively. Plasma was used for PK analysis via LC-MS/MS. On prescribed days, animals were sacrificed, and the hind limb bones (femurs and tibias) were collected at necropsy for bone marrow analysis of NSP activities by kinetic enzymatic assays.
For the mice, each animal had the femurs and tibias of both hind limbs harvested. For the rat, the femur and tibia from a single hind limb per animal was harvested. Bones were kept on wet ice until processing for bone marrow collection. In brief, bone cutters were used to cut the epiphysis (knobby ends) off the long bones to expose the bone marrow filled cavity. Each bone cavity was then flushed with 5 mL/bone (mouse) or 10 mL/bone (rat) of ice-cold RPMI media through a […] and collected in a 50-mL conical tube. Cells were spun down at 2,500 × g at 4°C for 5 min and the supernatant was aspirated. After which, bone marrow cells were lysed with 1X red blood cell (RBC) lysis buffer (Abcam, ab204733) to eliminate contaminating RBCs and washed with PBS to remove any residual RBC lysis buffer. The resulting white blood cells (WBC) were subsequently lysed with 1% (v/v) Triton X-100 in PBS. Lysates were added to 96-well plates and stored at −80°C until NSP analyses.
Bone marrow lysates prepared as described above were diluted and plated onto 96-well assay plates to quantify NSP activities as described previously ([Basso et al., 2022]). Briefly, peptide substrates for NE (N-Methoxysuccinyl-Ala-Ala-Pro-Val-7-amido-4-methylcoumarin; Sigma; St. Louis, MO; Excitation/Emission at 350/450 nm), PR3 ((7-Methoxycoumarin-4-yl)acetyl-lysyl-(picolinoyl)-Tyr-Asp-Ala-Lys-Gly-Asp-N-3-(2-4-dinitrophenyl)-2-3-diaminopropyonyl-NH2); GenScript; Piscataway, NJ; Excitation/Emission at 340/430 nm), and CatG (N-Succinyl-Ala-Ala-Pro-Phe p nitroanilide; Sigma; Absorbance at 405 nm) were added at a final assay concentration of 100 μM, 40 μM, and 200 μM, respectively, and either fluorescence or absorbance was quantified using a Synergy microplate reader (BioTek; Winooski, VT). The specific NSP activity in each sample was calculated as the total activity minus the activity in the presence of a specific NSP inhibitor (if used), including elastase inhibitor (Abcam) for NE, sivelestat (Abcam) for PR3, and cathepsin G inhibitor I (Cayman Chemical; Ann Arbor, MI) for CatG. NSP concentrations were interpolated based on their activities relative to the standard curves created using active human NE protein (Sigma), active human PR3 protein (Sigma), and active human CatG protein (Sigma), respectively. Due to unavailability of commercial mouse and/or rat NE, PR3, and CatG proteins, the corresponding human proteins were used instead since their catalytic ability is considered to be conserved across species. A portion of each cell lysate sample was retained for protein quantification using a Pierce™ BCA Protein Assay Kit (Thermo Fisher). The NSP activities were normalized for the cell lysate protein concentrations.
The Pierce™ BCA Protein Assay Kit was used to measure the total protein of the samples after lysis to allow for subsequent normalization. The manufacturer’s instructions for use were followed when performing this assay on a portion of the sample lysates which were diluted in PBS, the same diluent as used for preparation of the standard. Plates were read on the Biotek Synergy plate reader with Gen5 software.

[1] = after 8 days of 5 mg/kg BID, curve fit with free min and max

`Cn1c(=O)oc2ccc(-c3ccc(C[C@@H](C#N)NC(=O)[C@@H]4CNCCCO4)cc3)cc21` [brensocatib] was tested, and the “Recovery: Time to reach 50% recovery, PR3” value [1] was 1.4 days, the “Recovery: Time to reach 90% recovery, PR3” value [1] was 5.2 days and the “Recovery: Time to reach 95% recovery, PR3” value [1] was 6.2 days. For the same molecule, the “Recovery: Time to reach 100% recovery, PR3” value [1] was 7.5 days, the “Percent change from vehicle PR3” value (1 day recovery after 8 days of 5 mg/kg BID) was −63% (p < 0.0001) and the “Percent change from vehicle PR3” value (3 days recovery after 8 days of 5 mg/kg BID) was −28% (p = 0.0024). The “Percent change from vehicle PR3” value (6 days recovery after 8 days of 5 mg/kg BID) was −14% (p = 0.3753), the “Percent change from vehicle PR3” value (8 days recovery after 8 days of 5 mg/kg BID) was “+5% (p = 0.9691)” and the “Percent change from vehicle PR3” value (10 days recovery after 8 days of 5 mg/kg BID) was “+16% (p = 0.1549)”.
